Data reported in patent publication US7473688B2, “Indolobenzazepine HCV NS5B inhibitors” (Bristol-Myers Squibb Company, priority 2005, dated 2009).
Where two headings read alike, the source gives them in different places.

Experiments:
HCV NS5B = biological target: T1, HCV NS5B (Hepatitis C virus genotype 1b, UniProt Q9WMX2); assay: HCV NS5B RdRp enzyme assay (preincubation protocol); format: biochemical
T1 construct: The protein was expressed with an 18 amino acid C-terminal truncation to enhance the solubility; made in house; host or cells: E. coli BL21 (DE3), pET21a
Method in brief: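 C-terminally truncated (Δ18) genotype 1b NS5B from E. coli, 14 nM, added to compound, then polyA template (0.2 nM), 3H-UTP (0.29 μM) and oligo-dT12 primer precaptured on streptavidin SPA beads. 4 h at 30 °C, pH 7.5, 2% DMSO; SPA readout; IC50 from seven concentrations by logistic fit.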

HCV replicon = HCV replicon FRET assay; format: cell-based; conditions: Hepatitis C virus, FRET assay, read-out: EC50*
Method in brief: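 HCV replicon cells, with or without Renilla luciferase reporter, incubated with titrated compounds at 37 °C; Alamar blue read for cytotoxicity. NS3 protease activity read from lysates with 20 μM EDANS/DABCYL FRET peptide (340/490 nm, kinetic), or by Dual-Glo luciferase. Background from highest protease-inhibitor wells; EC50 = 50% signal reduction.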

T1 sequence (Q9WMX2 2420-2992): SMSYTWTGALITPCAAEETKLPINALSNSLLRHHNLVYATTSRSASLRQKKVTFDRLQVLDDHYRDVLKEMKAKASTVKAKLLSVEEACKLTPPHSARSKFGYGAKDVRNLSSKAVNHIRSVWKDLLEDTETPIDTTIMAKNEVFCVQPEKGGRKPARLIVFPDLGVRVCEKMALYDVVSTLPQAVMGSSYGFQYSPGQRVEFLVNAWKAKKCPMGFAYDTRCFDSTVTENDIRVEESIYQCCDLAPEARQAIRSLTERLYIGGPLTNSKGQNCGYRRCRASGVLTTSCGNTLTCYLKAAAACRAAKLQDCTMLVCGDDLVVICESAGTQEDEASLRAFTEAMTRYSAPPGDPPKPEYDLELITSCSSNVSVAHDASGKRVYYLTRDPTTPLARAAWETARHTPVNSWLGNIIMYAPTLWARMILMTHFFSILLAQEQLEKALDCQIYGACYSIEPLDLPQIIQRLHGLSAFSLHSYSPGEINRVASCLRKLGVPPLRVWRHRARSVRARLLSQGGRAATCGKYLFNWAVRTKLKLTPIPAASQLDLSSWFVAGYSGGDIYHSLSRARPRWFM

SMILES	IC50 (HCV NS5B; Table 1, read-out: IC50*) [nM]	EC50 (HCV replicon; Table 1) [nM]	further results
COc1ccc2c(c1)CC(NC(=O)N1CCN(C(C)=O)CC1)Cn1c-2c(C2CCCCC2)c2ccc(C(=O)NS(=O)(=O)N(C)C)cc21 (stereo not drawn)			IC50 (HCV NS5B; Table 1a, read-out: IC50*): 10 to 1000 nM; EC50 (HCV replicon; Table 1a): 30 to 1000 nM
CCN(C)C(=O)NC1Cc2cc(OC)ccc2-c2c(C3CCCCC3)c3ccc(C(=O)NS(=O)(=O)N(C)C)cc3n2C1 (stereo not drawn)			IC50 (HCV NS5B; Table 1b, read-out: IC50*): 20 to 1000 nM; EC50 (HCV replicon; Table 1b): 30 to 1000 nM
COc1ccc2c(c1)CC(NC(=O)N(C)CC(N)=O)Cn1c-2c(C2CCCCC2)c2ccc(C(=O)NS(=O)(=O)N(C)C)cc21 (stereo not drawn)			IC50 (HCV NS5B; Table 1b, read-out: IC50*): 20 to 1000 nM; EC50 (HCV replicon; Table 1b): 30 to 1000 nM
CC(C)(C)OC(=O)N1CCN(C(=O)C2=Cc3ccccc3-c3c(C4CCCCC4)c4ccc(C(=O)O)cc4n3C2)CC1	10 to 1000	70 to 1000	
COc1ccc2c(c1)C=C(C(=O)N1CCN(c3cnccn3)CC1)Cn1c-2c(C2CCCCC2)c2ccc(C(=O)NS(=O)(=O)N(C)C)cc21			IC50 (HCV NS5B; Table 1b, read-out: IC50*): 20 to 1000 nM; EC50 (HCV replicon; Table 1b): 30 to 1000 nM
CC(=O)N1CCN(C(=O)C2=Cc3ccccc3-c3c(C4CCCCC4)c4ccc(C(=O)NS(=O)(=O)N5CCOCC5)cc4n3C2)CC1	10 to 1000	70 to 1000	
CN(C)S(=O)(=O)NC(=O)c1ccc2c(C3CCCCC3)c3n(c2c1)CC(C(=O)N1CCCC(F)C1)=Cc1ccccc1-3 (stereo not drawn)	10 to 1000	70 to 1000	
C[C@@H]1CN(C(=O)c2ccccc2)CCN1C(=O)C1=Cc2ccccc2-c2c(C3CCCCC3)c3ccc(C(=O)NS(=O)(=O)N(C)C)cc3n2C1	10 to 1000	70 to 1000	
COc1ccc2c(c1)CC(NC(=O)N(C)CC(=O)N(C)C)Cn1c-2c(C2CCCCC2)c2ccc(C(=O)NS(=O)(=O)N(C)C)cc21 (stereo not drawn)			IC50 (HCV NS5B; Table 1a, read-out: IC50*): 10 to 1000 nM; EC50 (HCV replicon; Table 1a): 30 to 1000 nM
O=C(O)c1ccc2c(C3CCCCC3)c3n(c2c1)CC(C(=O)N1CCCC(F)C1)=Cc1ccccc1-3 (stereo not drawn)	10 to 1000	1000 to 10000	
CN1CCCC(CN(C)C(=O)C2=Cc3ccccc3-c3c(C4CCCCC4)c4ccc(C(=O)O)cc4n3C2)C1 (stereo not drawn)	10 to 1000	70 to 1000	
COc1ccc2c(c1)C=C(C(=O)N1CCN(CC(F)(F)F)CC1)Cn1c-2c(C2CCCCC2)c2ccc(C(=O)NS(=O)(=O)N(C)C)cc21 [drawing 390]			IC50 (HCV NS5B; Table 1a, read-out: IC50*): 10 to 1000 nM; EC50 (HCV replicon; Table 1a): 30 to 1000 nM
O=C1Cn2c(c(C3CCCCC3)c3ccc(C(=O)NS(=O)(=O)N4CCOCC4)cc32)-c2ccccc2N1	10 to 1000	70 to 1000	
CN(C)S(=O)(=O)NC(=O)c1ccc2c(C3CCCCC3)c3n(c2c1)CC(C(=O)N1CCCC(C(N)=O)C1)=Cc1ccccc1-3 (stereo not drawn)	10 to 1000	70 to 1000	
O=C(NCc1cnn[nH]1)c1ccc2c(C3CCCCC3)c3n(c2c1)CC(C(=O)N1CCOCC1)=Cc1ccccc1-3	10 to 1000	70 to 1000	
CN(C)S(=O)(=O)NC(=O)c1ccc2c(C3CCCCC3)c3n(c2c1)CC(C(=O)N1CCOC(c2ccccc2)C1)=Cc1ccccc1-3 (stereo not drawn)	10 to 1000	1000 to 10000	
COc1ccc2c(c1)CC(NC(=O)N(C)CC(=O)N1CCOCC1)Cn1c-2c(C2CCCCC2)c2ccc(C(=O)NS(=O)(=O)N(C)C)cc21 (stereo not drawn)			IC50 (HCV NS5B; Table 1a, read-out: IC50*): 10 to 1000 nM; EC50 (HCV replicon; Table 1a): 30 to 1000 nM
COC(=O)c1ccc2c(C3CCCCC3)c3n(c2c1)CC(C(=O)N1CCC(N2CCCC(F)(F)C2)CC1)=Cc1ccccc1-3	> 1000	> 370	
COC(=O)c1ccc2c(C3CCCCC3)c3n(c2c1)CC(NC(=O)N1CCC(N2CCOCC2)CC1)Cc1ccccc1-3 (stereo not drawn)	10 to 1000	> 120	
COc1ccc2c(c1)C=C(C(=O)N[C@@H]1C3CCC(C)([C@@H]1O)C3(C)C)Cn1c-2c(C2CCCCC2)c2ccc(C(=O)NS(=O)(=O)N(C)C)cc21 (stereo partly drawn)			IC50 (HCV NS5B; Table 1b, read-out: IC50*): 20 to 1000 nM; EC50 (HCV replicon; Table 1b): 30 to 1000 nM
COC(=O)CCC(=O)CNC(=O)C1=Cc2cc(OC)ccc2-c2c(C3CCCCC3)c3ccc(C(=O)OC)cc3n2C1			IC50 (HCV NS5B; Table 1a, read-out: IC50*): 10 to 1000 nM; EC50 (HCV replicon; Table 1a): 30 to 1000 nM
CN(C)S(=O)(=O)NC(=O)c1ccc2c(C3CCCCC3)c3n(c2c1)CC(C(=O)N1CCC(N2CC[C@H](F)C2)CC1)=Cc1ccccc1-3	10 to 1000	70 to 1000	
COc1cccc2c1C=C(C(=O)N1C[C@@H](C)N[C@@H](C)C1)Cn1c-2c(C2CCCCC2)c2ccc(C(=O)O)cc21			IC50 (HCV NS5B; Table 1b, read-out: IC50*): 20 to 1000 nM; EC50 (HCV replicon; Table 1b): 30 to 1000 nM
CN(C)S(=O)(=O)NC(=O)c1ccc2c(C3CCCCC3)c3n(c2c1)CC(C(=O)N1CCn2cnnc2C1)=Cc1ccccc1-3	10 to 1000	1000 to 10000	
COc1ccc2c(c1)C=C(C(=O)N1CC(N)C1)Cn1c-2c(C2CCCCC2)c2ccc(C(=O)NS(=O)(=O)N(C)C)cc21			IC50 (HCV NS5B; Table 1b, read-out: IC50*): 20 to 1000 nM; EC50 (HCV replicon; Table 1b): 30 to 1000 nM
CC(=O)N(C)C1CCN(C(=O)C2=Cc3ccccc3-c3c(C4CCCCC4)c4ccc(C(=O)NS(=O)(=O)N(C)C)cc4n3C2)C1 (stereo not drawn)	10 to 1000	70 to 1000	
CN(CCC1OCCO1)C(=O)C1=Cc2ccccc2-c2c(C3CCCCC3)c3ccc(C(=O)NS(=O)(=O)N(C)C)cc3n2C1	10 to 1000	70 to 1000	
